Source: patent US7973162B2, “Modulators of muscarinic receptors” (Vertex Pharmaceuticals Incorporated, priority 2007, dated 2011)

Assays:
Type in all cases: cell-based
[1] = target: T1, M4 muscarinic receptor (Homo sapiens, UniProt P08173); test: Functional mobilization of intracellular calcium (FLIPR), M4-CHO cells; conditions: for Emax / M4 Efficacy: 100% efficacy = maximum response obtained with the Carbachol control; for EC50: CHO cells expressing M4, calcium mobilization
T1 construct: expressed in transfected cells; host or cells: CHO (M4-CHO)
T1 sequence (P08173 1-479): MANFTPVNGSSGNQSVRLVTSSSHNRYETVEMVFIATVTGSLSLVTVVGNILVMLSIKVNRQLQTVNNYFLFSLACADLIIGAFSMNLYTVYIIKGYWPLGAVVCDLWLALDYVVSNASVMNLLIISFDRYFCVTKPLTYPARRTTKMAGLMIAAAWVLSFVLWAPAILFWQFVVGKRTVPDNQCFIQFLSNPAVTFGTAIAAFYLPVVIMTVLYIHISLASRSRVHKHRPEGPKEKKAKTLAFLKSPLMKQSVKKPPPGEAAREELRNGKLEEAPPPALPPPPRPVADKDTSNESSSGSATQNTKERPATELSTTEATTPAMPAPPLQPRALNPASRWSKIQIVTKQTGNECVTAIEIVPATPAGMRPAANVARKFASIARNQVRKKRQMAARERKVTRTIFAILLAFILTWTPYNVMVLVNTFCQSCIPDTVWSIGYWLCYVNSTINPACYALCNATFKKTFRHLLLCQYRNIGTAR
Procedure: (§1) Functional Mobilization of Intracellular Calcium to Determine Muscarinic Receptor Activity:
(§2) CHO cells expressing muscarinic receptors (M1 to M5) are grown as monolayers in tissue culture flasks at 37° C. in a humidified atmosphere containing 5% CO2 and passaged every 3-5 days. The growth media is Dulbecco's modified eagles medium (DMEM, Gibco Cat# 12430-054), containing 25 mM Hepes and supplemented with Fetal Bovine Serum (Hyclone, cat #SH30071.03), 0.1 mM of MEM non-essential amino acids (GIBCO, Cat #11140-050), 1 mM MEM Sodium Pyruvate (GIBCO Cat #11360-070) and 100 units/ml of Penicillin G and 100 μg/ml of Streptomycin (GIBCO Cat #15140-122). The recombinant muscarinic receptor cell lines are grown under antibiotic pressure with media containing 25 μg/ml zeocin and 500 μg/ml G418 (M1-CHO), 4 μg/ml puromycin, 50 μg/ml zeocin and 2.5 μg/ml blasticidin (M2 and M4-CHO) or 50 μg/ml zeocin and 4 μg/ml puromycin (M3 and M5-CHO).
(§3) Cells are harvested at 80-90% confluence using Versene (GIBCO Cat #15040-066), collected by centrifugation and seeded 18-24 hrs prior to running the calcium assay at a density of 5,000-10,000 cells/well in […], clear-bottomed 384-well plates (BD Biocoat, poly-D-lysine, Cat#356663). The day of the experiment, the cells are washed with a plate washer (Bioteck Instruments, ELX 405) using bath1 buffer (140-mM NaCl, 4.5-mM KCl, 2-mM CaCl2, 1-mM MgCl2, 10-mM Hepes-Na, 10-mM Glucose, pH 7.4, with NaOH) containing 1 mM Probenecid. Next, the calcium dye Fluo-3 (25 μl/well of Fluo-3 AM at 4 μM, Molecular Probes F-1241, in Bath 1 buffer containing 1 mM Probenecid) is added to the 25 μl of Bath 1 remaining in each well after the plate wash and the dye is loaded at 37° C. in the tissue culture incubator for 60-90 min. The fluorescent dye is removed using the plate washer with Bath 1 containing 1 mM Probenecid, leaving 25 μl/well of this solution after the wash. Alternatively, cells can be loaded with the calcium indicator from Molecular Devices (Calcium 3 Assay Reagents, Cat #R7181) adding 5 μl of a 5× solution dye in Bath 1 containing 1 mM Probenecid (10 ml per dye flask cat #R7182 to generate a solution 20×) to 20 μl of the same buffer. After loading for 60 min, the experiment can be run without having to remove the dye.
(§4) Compounds are prepared at a 2× fold concentration in a 96-well plate (round bottom, Costar Corning cat #3656), by reconstituting the pre-spotted compounds in bath 1 containing 1 mM probenecid. The final concentration DMSO is 0.5%, and the amount of DMSO is normalized across the assay plate. To determine an agonist action of the compounds on muscarinic receptors, the reconstituted compounds are added (25 μl compound/well) to the cell assay plate (containing 25 μl/well) using the multi-channel robotic system of the FLIPR 3 Instrument (Molecular Devices, Sunnyvale, Calif.). To determine a functional inhibitory action of the compounds on muscarinic receptors, the reconstituted compounds are added (25 μl compound/well) to the assay plate and pre-incubated for 15 min prior to adding 25 μl of Carbachol at 3× the EC80 for each muscarinic subtype. Alternatively, the compounds can be co-applied simultaneously with the agonist. In both assay modes, the fluorescence is recorded for 60 sec (excitation wavelength is […] and emission wavelength 540 nm) using the FLIPR 3 instrument.
(§5) The potency, efficacy and selectivity of the muscarinic compounds were evaluated by screening the compound activity across the whole family (M1 to M5 cells). Compounds were also screened for activity on other proteins such as other GPCRs and ion channels to determine selectivity on M4 receptors.
(§6) Examples of activities and efficacies of the muscarinic compounds of formulae (I, Ia, and Ib) on modulating M1 and M4 receptors are shown below in Table 3. […]

[2] = target: T2, M2 muscarinic receptor (Homo sapiens, UniProt P08172); test: Functional mobilization of intracellular calcium (FLIPR), M2-CHO cells; conditions: for Emax / M2 Efficacy: 100% efficacy = maximum response obtained with the Carbachol control; for EC50: CHO cells expressing M2, calcium mobilization
T2 construct: expressed in transfected cells; host or cells: CHO (M2-CHO)
T2 sequence (P08172 1-466): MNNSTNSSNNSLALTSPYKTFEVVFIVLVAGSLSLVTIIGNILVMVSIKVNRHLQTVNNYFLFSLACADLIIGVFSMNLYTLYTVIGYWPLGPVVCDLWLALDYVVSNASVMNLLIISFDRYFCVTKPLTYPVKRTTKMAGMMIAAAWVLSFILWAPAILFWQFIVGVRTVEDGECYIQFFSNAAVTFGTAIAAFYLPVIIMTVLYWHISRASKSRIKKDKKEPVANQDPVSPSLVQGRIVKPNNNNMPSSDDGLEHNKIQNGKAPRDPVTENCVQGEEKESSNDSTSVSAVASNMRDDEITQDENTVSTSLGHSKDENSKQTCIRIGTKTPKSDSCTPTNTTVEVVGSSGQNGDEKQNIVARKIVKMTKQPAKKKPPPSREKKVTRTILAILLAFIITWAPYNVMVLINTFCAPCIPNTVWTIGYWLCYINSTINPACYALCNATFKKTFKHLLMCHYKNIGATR
Procedure: as §1, §2, §3, §4, §5, §6

[3] = target: T3, M1 muscarinic receptor (Homo sapiens, UniProt P11229); test: Functional mobilization of intracellular calcium (FLIPR), M1-CHO cells; conditions: for Emax / M1 Efficacy: 100% efficacy = maximum response obtained with the Carbachol control; for EC50: CHO cells expressing M1, calcium mobilization
T3 construct: expressed in transfected cells; host or cells: CHO (M1-CHO)
T3 sequence (P11229 1-460): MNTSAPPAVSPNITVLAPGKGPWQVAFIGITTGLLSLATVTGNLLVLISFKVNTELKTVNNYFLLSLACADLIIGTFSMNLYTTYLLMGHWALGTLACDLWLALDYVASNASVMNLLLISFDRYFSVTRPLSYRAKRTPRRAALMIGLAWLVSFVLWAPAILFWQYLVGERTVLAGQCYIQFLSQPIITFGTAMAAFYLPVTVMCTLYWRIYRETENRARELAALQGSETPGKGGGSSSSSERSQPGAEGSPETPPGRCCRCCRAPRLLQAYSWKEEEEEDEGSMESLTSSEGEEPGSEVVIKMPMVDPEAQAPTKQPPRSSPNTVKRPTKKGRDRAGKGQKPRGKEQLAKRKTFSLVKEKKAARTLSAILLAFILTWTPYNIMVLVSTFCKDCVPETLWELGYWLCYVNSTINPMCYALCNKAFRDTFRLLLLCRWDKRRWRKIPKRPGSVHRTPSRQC
Procedure: as §1, §2, §3, §4, §5, §6

[4] = target: T4, M3 muscarinic receptor (Homo sapiens, UniProt P20309); test: Functional mobilization of intracellular calcium (FLIPR), M3-CHO cells; conditions: for Emax / M3 Efficacy: 100% efficacy = maximum response obtained with the Carbachol control; for EC50: CHO cells expressing M3, calcium mobilization
T4 construct: expressed in transfected cells; host or cells: CHO (M3-CHO)
Procedure: as §1, §2, §3, §4, §5, §6

T4 sequence (P20309 whole entry): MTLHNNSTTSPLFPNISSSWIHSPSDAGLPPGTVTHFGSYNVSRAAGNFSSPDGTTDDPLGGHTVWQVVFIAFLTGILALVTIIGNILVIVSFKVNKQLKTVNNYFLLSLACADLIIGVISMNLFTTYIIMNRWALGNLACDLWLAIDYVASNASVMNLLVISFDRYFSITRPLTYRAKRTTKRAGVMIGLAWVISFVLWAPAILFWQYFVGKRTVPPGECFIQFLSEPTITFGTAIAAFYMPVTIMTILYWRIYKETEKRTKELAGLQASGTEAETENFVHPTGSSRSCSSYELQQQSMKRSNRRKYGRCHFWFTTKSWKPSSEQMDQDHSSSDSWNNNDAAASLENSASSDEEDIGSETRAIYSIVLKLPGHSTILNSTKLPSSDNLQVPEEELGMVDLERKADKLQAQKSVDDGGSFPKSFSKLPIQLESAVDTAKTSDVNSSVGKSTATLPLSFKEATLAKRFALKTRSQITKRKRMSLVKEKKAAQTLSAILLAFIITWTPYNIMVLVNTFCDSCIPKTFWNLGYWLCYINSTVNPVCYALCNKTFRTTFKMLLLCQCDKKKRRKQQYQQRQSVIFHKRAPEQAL

Row | Structure (SMILES) | Emax [1] [%] | EC50 [1] [µM] | Emax [2] [%] | EC50 [2] [µM] | Emax [3] [%] | EC50 [3] [µM] | Emax [4] [%] | EC50 [4] [µM] | M4 Efficacy [1] | M2 Efficacy [2] | M1 Efficacy [3] | M3 Efficacy [4]
1 | O=C1C[C@@H]2CC3(CCN(C[C@@H]4C[C@H]5C=C[C@H]4C5)CC3)c3ccccc3[C@@H]2N1 [Compound 25] | 25 to 100 | < 2 | 25 to 100 | < 2 | 25 to 100 | < 2 | 25 to 100 | > 5 |  |  |  | 
2 | CN1C(=O)C[C@@H]2CC3(CCN(C4CCCCCC4)CC3)c3ccccc3[C@@H]21 [Compound 10] | 25 to 100 | < 2 | 25 to 100 | > 5 | 25 to 100 | 2 to 5 | < 25 | > 5 |  |  |  | 
3 | COCCN1C(=O)C[C@@H]2CC3(CCN(CC4CCCCC4)CC3)c3ccccc3[C@@H]21 [Compound 22] | 25 to 100 | < 2 | < 25 | > 5 | 25 to 100 | 2 to 5 | < 25 | > 5 |  |  |  | 
4 | c1ccc2c(c1)C1OCCC1CC21CCN(CC2CCCCC2)CC1 (stereo not shown) [Compound 14] | 25 to 100 | < 2 | < 25 | > 5 | 25 to 100 | > 5 | < 25 | > 5 |  |  |  | 
5 | O=C1CC2CC3(CCN(C4CCCCC4)CC3)c3ccccc3C2O1 (stereo not shown) [Compound 21] | 25 to 100 | < 2 | 25 to 100 | > 5 | 25 to 100 | < 2 | < 25 | > 5 |  |  |  | 
6 | O=C1CC2CC3(CCN(C4CC5CCC(C5)C4)CC3)c3ccccc3C2O1 (stereo not shown) [Compound 28] | 25 to 100 | < 2 | < 25 | > 5 | 25 to 100 | < 2 | < 25 | > 5 |  |  |  | 
7 | COCCN1C(=O)C[C@@H]2CC3(CCN(C4CCCCC4)CC3)c3ccccc3[C@@H]21 [Compound 16] | 25 to 100 | < 2 | < 25 | > 5 | < 25 | > 5 | < 25 | > 5 |  |  |  | 
8 | O=C1C[C@@H]2CC3(CCN(C4CCCCC4)CC3)c3ccccc3[C@@H]2N1 [Compound 7] | 25 to 100 | < 2 | 25 to 100 | < 2 | 25 to 100 | < 2 | < 25 | > 5 |  |  |  | 
9 | O=C1C[C@@H]2[C@H](N1)c1ccccc1C21CCN(C2CCCCC2)CC1 [Compound 31] | 25 to 100 | < 2 | < 25 | 2 to 5 | 25 to 100 | < 2 | < 25 | > 5 |  |  |  | 
10 | O=C1C[C@@H]2[C@H](N1)c1ccccc1C21CCN(C[C@H]2C[C@@H]3CC[C@@H]2C3)CC1 [Compound 30] | 25 to 100 | < 2 | 25 to 100 | 2 to 5 | 25 to 100 | < 2 | < 25 | > 5 |  |  |  | 
11 | O=C1CC2CC3(CCN(CC4CCCCC4)CC3)c3ccccc3C2O1 (stereo not shown) [Compound 18] | 25 to 100 | < 2 | 25 to 100 | > 5 | 25 to 100 | < 2 | < 25 | > 5 |  |  |  | 
12 | O=C1C[C@@H]2CC3(CCN(C4CCCCC4)CC3)c3ccccc3[C@@H]2N1 [Compound 19] |  | < 2 |  | 2 to 5 |  | < 2 |  | > 5 | ++ (efficacy was calculated to be from 100% to 25%) | ++ (efficacy was calculated to be from 100% to 25%) | ++ (efficacy was calculated to be from 100% to 25%) | + (efficacy was calculated to be less than 25%)
13 | c1ccc2c(c1)C1OCCC1CC21CCN(C2CCCCC2)CC1 (stereo not shown) [Compound 26] | < 25 | < 2 | < 25 | > 5 | 25 to 100 | > 5 | < 25 | > 5 |  |  |  | 
14 | CN1C(=O)C[C@@H]2CC3(CCN(C4CCCCC4)CC3)c3ccccc3[C@@H]21 [Compound 24] |  | < 2 |  | > 5 |  | > 5 |  | > 5 | ++ (efficacy was calculated to be from 100% to 25%) | + (efficacy was calculated to be less than 25%) | ++ (efficacy was calculated to be from 100% to 25%) | + (efficacy was calculated to be less than 25%)
